Among the data in patent US5919768A, “Di- and trivalent small molecule selectin inhibitors” (Texas Biotechnology Corporation, priority 1998, dated 1999) are IC50 and inhibition values, retold here.

One assay addresses T1, L-selectin (Homo sapiens, UniProt P14151).
T1 construct: amino terminal lectin, EGF, and complement regulatory-like repeats (CR) 1 and 2; made in house; host or cells: SF21 insect cells, baculovirus (BakPAK)
T1 sequence (P14151 39-318): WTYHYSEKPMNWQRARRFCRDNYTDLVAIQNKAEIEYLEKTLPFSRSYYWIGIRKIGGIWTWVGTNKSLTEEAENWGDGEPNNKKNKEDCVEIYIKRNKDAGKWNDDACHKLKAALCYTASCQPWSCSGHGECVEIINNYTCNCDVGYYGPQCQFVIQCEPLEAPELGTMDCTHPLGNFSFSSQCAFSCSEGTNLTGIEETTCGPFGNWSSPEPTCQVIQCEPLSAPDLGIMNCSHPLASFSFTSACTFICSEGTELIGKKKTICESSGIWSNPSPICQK
As to the kind of experiment: Selectin binding assay: inhibition of binding of L-selectin to sialyl-Lewis^x (cell-protein; glycolipid-protein assay also mentioned). Conditions: for IC50: in vitro selectin assay. As for the experimental part:
(§1) Compounds were assayed for their ability to inhibit the binding of E-, P-, and/or L-selectin to sialyl-Lewis^x.
(§2) The E-selectin binding assays involved assessing the ability of HL60 cells that express sialyl-Lewis^x and Lewis^x to purified E-selectin, P-selectin and L-selectin recombinant proteins (cell-protein assay). A similar binding assay utilizing purified glycolipids and purified L-selectin recombinant protein (glycolipid-protein) was used to assess L-selectin binding.
(§3) All selectin fusion cassettes were generated by PCR from the E-selectin cDNA purchased from R&D Systems (Minneapolis, Minn.), and from the P-selectin and L-selectin cDNAs that were PCR cloned from total RNA extracted from human placenta. The mouse IgG cDNA was cloned from PCR amplified cDNA generated from RNA extracted from the hybridoma cell line 402C10. All fusion cassettes were expressed from baculovirus vectors using the BakPAK method and SF21 cells purchased from Clonetech.
(§4) Recombinant fusion proteins were purified from baculovirus infected culture supernatants by immunoprecipitation using Dynal™ goat anti-mouse IgG coated magnetic beads. Mock beads were generated from uninfected SF21 culture supernatants.
(§5) HL60 cells (10^7 cells) were fluorescently labeled with calcein AMC-3099 (Molecular Probes) in RPMI 1640 with 10% fetal calf serum (FCS). The magnetic beads (7 μl, 4×10^6 beads/ml) were incubated in duplicate wells of a flexible 96 well microtiter plate along with 7 μl of compound at various concentrations and 7 μl of calcein-labeled HL60 cells. The plates were incubated for ten minutes at room temperature. The plate was then placed on a magnetic separator and incubated for 2 more minutes. While the assay plate remained on the separator, unbound HL60 cells were removed and the wells were washed twice with phosphate buffered saline (PBS) to remove any remaining unbound cells. The HL60 cells remaining bound to the beads were inspected by microscopy and then lysed by adding […] of a 1% solution of NP40 in PBS. Binding was quantitated fluorimetrically using a Millipore Cytofluor 2350 fluorimeter.

A further assay has as its target T2, E-selectin (Homo sapiens, UniProt P16581).
T2 construct: amino terminal lectin, EGF, and complement regulatory-like repeats (CR) 1 and 2; made in house; host or cells: SF21 insect cells, baculovirus (BakPAK)
T2 sequence (P16581 22-301): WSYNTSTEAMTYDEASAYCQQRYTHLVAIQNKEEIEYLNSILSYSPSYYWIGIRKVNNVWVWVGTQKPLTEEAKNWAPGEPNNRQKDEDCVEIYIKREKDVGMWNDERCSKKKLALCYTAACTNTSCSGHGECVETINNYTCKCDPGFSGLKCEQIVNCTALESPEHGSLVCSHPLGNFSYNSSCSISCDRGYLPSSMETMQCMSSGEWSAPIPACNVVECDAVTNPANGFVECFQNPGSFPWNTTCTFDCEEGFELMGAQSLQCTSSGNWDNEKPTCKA
As to the kind of experiment: Cell-protein assay: inhibition of binding of HL60 cells (expressing sialyl-Lewis^x) to E-selectin. Particulars: for IC50: HL60 cell binding to selectin fusion protein on magnetic beads. The protocol:
as §1, §2, §3, §4, §5

The next assay concerns the target T3, P-selectin (Homo sapiens, UniProt P16109).
T3 construct: amino terminal lectin, EGF, and complement regulatory-like repeats (CR) 1 and 2; made in house; host or cells: SF21 insect cells, baculovirus (BakPAK)
T3 sequence (P16109 42-321): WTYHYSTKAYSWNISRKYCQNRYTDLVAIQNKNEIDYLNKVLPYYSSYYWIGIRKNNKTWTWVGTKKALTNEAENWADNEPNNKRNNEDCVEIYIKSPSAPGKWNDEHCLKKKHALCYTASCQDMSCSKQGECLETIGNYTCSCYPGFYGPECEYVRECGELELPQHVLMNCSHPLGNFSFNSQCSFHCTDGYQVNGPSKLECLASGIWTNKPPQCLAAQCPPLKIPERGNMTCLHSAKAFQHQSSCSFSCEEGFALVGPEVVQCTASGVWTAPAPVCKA
The experiment in a line: Cell-protein assay: inhibition of binding of HL60 cells (expressing sialyl-Lewis^x) to P-selectin. Conditions: HL60 cell binding to selectin fusion protein on magnetic beads. As for the experimental part:
as §1, §2, §3, §4, §5

Consider `O=C(O)Cc1cccc(-c2cc(Cc3cccc(Cc4ccc(O[C@H]5O[C@H](CO)[C@@H](O)[C@H](O)[C@@H]5O)c(-c5cccc(CC(=O)O)c5)c4)c3)ccc2O[C@H]2O[C@H](CO)[C@@H](O)[C@H](O)[C@@H]2O)c1` [B-m], for which the IC50 on L-selectin stood at 3000 µM; on P-selectin it was 220 µM. Further, the inhibition at 1000 µM on E-selectin (at 1 mM, read-out: E-Selectin % inhib.) was found to be 0%.

On to `O=C(O)Cc1cccc(-c2cc(CCCSCCCSCCCc3ccc(O[C@H]4O[C@H](CO)[C@@H](O)[C@H](O)[C@@H]4O)c(-c4cccc(CC(=O)O)c4)c3)ccc2O[C@H]2O[C@H](CO)[C@@H](O)[C@H](O)[C@@H]2O)c1` [D], for which the inhibition at 2000 µM on E-selectin (at 2 mM, read-out: E-Selectin % inhib.) was found to be 29%. The compound also gave an IC50 at P-selectin of 500 µM.

Take `O=C(O)Cc1cccc(-c2cc(C(=O)CCCCC(=O)c3ccc(O[C@H]4O[C@H](CO)[C@@H](O)[C@H](O)[C@@H]4O)c(-c4cccc(CC(=O)O)c4)c3)ccc2O[C@H]2O[C@H](CO)[C@@H](O)[C@H](O)[C@@H]2O)c1` [F]: the figures for the concentration for half-maximal inhibition (IC50) at L-selectin, on E-selectin and at P-selectin were 3000 µM, 1000 µM and 1000 µM, respectively.

As for `O=C(O)Cc1cccc(-c2cc(Cc3cc(Cc4ccc(O[C@H]5O[C@H](CO)[C@@H](O)[C@H](O)[C@@H]5O)c(-c5cccc(CC(=O)O)c5)c4)cc(Cc4ccc(O[C@H]5O[C@H](CO)[C@@H](O)[C@H](O)[C@@H]5O)c(-c5cccc(CC(=O)O)c5)c4)c3)ccc2O[C@H]2O[C@H](CO)[C@@H](O)[C@H](O)[C@@H]2O)c1` [H], the IC50 on L-selectin was 500 µM; on E-selectin, 700 µM; on P-selectin it was 200 µM.

On to `O=C(O)Cc1cccc(-c2cc(CCCCCCCCCc3ccc(O[C@H]4O[C@H](CO)[C@@H](O)[C@H](O)[C@@H]4O)c(-c4cccc(CC(=O)O)c4)c3)ccc2O[C@H]2O[C@H](CO)[C@@H](O)[C@H](O)[C@@H]2O)c1` [Compound A-9], for which the IC50 at E-selectin and at P-selectin was 1000 µM in each case.

Consider `O=C(O)Cc1cccc(-c2cc(C(=O)CSCc3cc(CSCC(=O)c4ccc(O[C@H]5O[C@H](CO)[C@@H](O)[C@H](O)[C@@H]5O)c(-c5cccc(CC(=O)O)c5)c4)cc(CSCC(=O)c4ccc(O[C@H]5O[C@H](CO)[C@@H](O)[C@H](O)[C@@H]5O)c(-c5cccc(CC(=O)O)c5)c4)c3)ccc2O[C@H]2O[C@H](CO)[C@@H](O)[C@H](O)[C@@H]2O)c1` [J], for which the IC50 on L-selectin was 2000 µM; on E-selectin it was 4000 µM.

As for `O=C(O)Cc1cccc(-c2cc(CCCC(=O)N3CCC(CCCC4CCN(C(=O)CCCc5ccc(O[C@H]6O[C@H](CO)[C@@H](O)[C@H](O)[C@@H]6O)c(-c6cccc(CC(=O)O)c6)c5)CC4)CC3)ccc2O[C@H]2O[C@H](CO)[C@@H](O)[C@H](O)[C@@H]2O)c1` [G], the inhibition at 3000 µM on L-selectin (at 3 mM, read-out: L-Selectin % inhib.) was 0%. Besides, on P-selectin, the IC50 stood at 1000 µM.

As for `O=C(O)Cc1cccc(-c2cc(Cc3ccc(Cc4ccc(O[C@H]5O[C@H](CO)[C@@H](O)[C@H](O)[C@@H]5O)c(-c5cccc(CC(=O)O)c5)c4)cc3)ccc2O[C@H]2O[C@H](CO)[C@@H](O)[C@H](O)[C@@H]2O)c1` [B-p], the values for the IC50 on L-selectin, at E-selectin and at P-selectin were 3000 µM, 2000 µM and 2000 µM, respectively.

As for `O=C(O)Cc1cccc(-c2cc(Cc3ccc(Oc4ccc(Cc5ccc(O[C@H]6O[C@H](CO)[C@@H](O)[C@H](O)[C@@H]6O)c(-c6cccc(CC(=O)O)c6)c5)cc4)cc3)ccc2O[C@H]2O[C@H](CO)[C@@H](O)[C@H](O)[C@@H]2O)c1` [C], the inhibition at 2000 µM at L-selectin (at 2 mM, read-out: L-Selectin % inhib.) worked out at 0%. On P-selectin, this compound had an IC50 of 700 µM.

As for `O=C(O)COc1cccc(-c2cc(CCCCCCc3ccc(O[C@H]4O[C@H](CO)[C@@H](O)[C@H](O)[C@@H]4O)c(-c4cccc(OCC(=O)O)c4)c3)ccc2O[C@H]2O[C@H](CO)[C@@H](O)[C@H](O)[C@@H]2O)c1` [E], the results for the IC50 at L-selectin, at E-selectin and at P-selectin were 1400 µM, 3270 µM and 540 µM, respectively.

Turning to `O=C(O)Cc1cccc(-c2cc(CCCCCc3ccc(O[C@H]4O[C@H](CO)[C@@H](O)[C@H](O)[C@@H]4O)c(-c4cccc(CC(=O)O)c4)c3)ccc2O[C@H]2O[C@H](CO)[C@@H](O)[C@H](O)[C@@H]2O)c1` [Compound A-5], the IC50 at L-selectin amounted to 300 µM; on E-selectin, 400 µM; on P-selectin it was 300 µM.

In the case of `O=C(O)Cc1cccc(-c2cc(CCCCCCCc3ccc(O[C@H]4O[C@H](CO)[C@@H](O)[C@H](O)[C@@H]4O)c(-c4cccc(CC(=O)O)c4)c3)ccc2O[C@H]2O[C@H](CO)[C@@H](O)[C@H](O)[C@@H]2O)c1` [Compound A-7], the IC50 at E-selectin worked out at 500 µM; at P-selectin, 400 µM.

In turn, `O=C(O)Cc1cccc(-c2cc(CCCCc3ccc(O[C@H]4O[C@H](CO)[C@@H](O)[C@H](O)[C@@H]4O)c(-c4cccc(CC(=O)O)c4)c3)ccc2O[C@H]2O[C@H](CO)[C@@H](O)[C@H](O)[C@@H]2O)c1` [Compound A-4, 1,4-Bis-[3-(3-carboxymethylphenyl)-4-(2-α-D-mannopyranosyloxy)phenyl]butane] yielded an IC50 at L-selectin of 2000 µM. This counts as millimolar.
